What was measured:
[1] = target: T1, Glycogen phosphorylase, liver form (Homo sapiens, UniProt P06737); experiment: Inhibition of human liver GPa in presence of glucose
T1 sequence (P06737 whole entry): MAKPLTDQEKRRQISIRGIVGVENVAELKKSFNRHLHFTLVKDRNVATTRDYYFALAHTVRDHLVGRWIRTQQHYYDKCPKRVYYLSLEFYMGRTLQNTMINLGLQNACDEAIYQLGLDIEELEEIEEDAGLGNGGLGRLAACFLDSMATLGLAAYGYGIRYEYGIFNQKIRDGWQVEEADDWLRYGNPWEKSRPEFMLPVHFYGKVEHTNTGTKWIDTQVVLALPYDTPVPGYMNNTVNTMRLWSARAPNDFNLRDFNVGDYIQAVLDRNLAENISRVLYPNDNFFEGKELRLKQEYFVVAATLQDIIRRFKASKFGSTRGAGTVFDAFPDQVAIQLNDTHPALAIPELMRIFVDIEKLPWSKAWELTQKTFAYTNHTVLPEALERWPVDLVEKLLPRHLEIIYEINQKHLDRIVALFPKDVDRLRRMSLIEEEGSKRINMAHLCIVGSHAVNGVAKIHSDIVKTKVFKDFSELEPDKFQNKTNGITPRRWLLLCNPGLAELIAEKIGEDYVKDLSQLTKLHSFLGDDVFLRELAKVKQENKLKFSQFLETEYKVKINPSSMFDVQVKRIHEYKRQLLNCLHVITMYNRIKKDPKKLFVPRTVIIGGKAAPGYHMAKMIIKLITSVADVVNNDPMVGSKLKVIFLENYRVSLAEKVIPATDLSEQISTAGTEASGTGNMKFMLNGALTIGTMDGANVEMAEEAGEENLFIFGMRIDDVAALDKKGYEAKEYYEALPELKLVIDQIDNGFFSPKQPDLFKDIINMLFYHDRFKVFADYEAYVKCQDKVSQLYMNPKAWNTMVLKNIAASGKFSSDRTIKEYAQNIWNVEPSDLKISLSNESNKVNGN

[2] = target: T1, Glycogen phosphorylase, liver form; experiment: Inhibition of human liver GPa in absence of glucose
[3] = Permeability in artificial phospholipid bilayer membrane at pH 7.05; assay type: ADME; conditions: not told, read-out: permeability

In the case of `O=C(/C=C/c1ccc(Cl)c(Cl)c1)NCCCCCN1CCN(C(=O)Nc2ccc3c(c2)OCO3)CC1`, the IC50 [1] is reported as 70 µM.
With `O=C(/C=C/c1ccc(Cl)c(Cl)c1)NCCCCCCN1CCN(C(=O)Nc2ccc(Cl)c(Cl)c2)CC1` the IC50 [1] was 0.44 µM.
Compound `COc1cccc(NC(=O)N2CCN(CCCCCNC(=O)/C=C/c3ccc(Cl)c(Cl)c3)CC2)c1` has an IC50 [1] of 100 µM.
Compound `O=C(/C=C/c1ccc(Cl)c(Cl)c1)NCCCCCN1CCCN(C(=O)Nc2ccc(Cl)cc2)CC1` has an IC50 [1] of 51 µM.
With `COc1cccc(NC(=O)N2CCCN(CCCCCNC(=O)/C=C/c3ccc(Cl)c(Cl)c3)CC2)c1` the IC50 [1] was 10 µM.
For `Cc1ccc(NC(=O)N2CCN(CCCCCNC(=O)/C=C/c3ccc(Cl)c(Cl)c3)CC2)cc1`, the IC50 [1] was 100 µM.
Work on `O=C(/C=C/c1ccc(Cl)c(Cl)c1)NCCCCCN1CCCN(C(=O)Nc2ccc(F)c(Cl)c2)CC1` yielded an IC50 [1] of 0.72 µM.
Compound `O=C(/C=C/c1ccccc1)NCCCCN1CCCN(C(=O)Nc2ccc(Cl)c(Cl)c2)CC1` has an IC50 [1] of 0.17 µM.
For `O=C(/C=C/c1ccc(Cl)c(Cl)c1)NCCCCN1CCN(C(=O)Nc2ccc(Cl)c(Cl)c2)CC1`, the IC50 [1] was 0.71 µM.
`O=C(/C=C/c1ccc(Cl)c(Cl)c1)NCCCCCN1CCN(C(=O)Nc2ccc(Cl)c(Cl)c2)CC1` showed an IC50 [2] of over 20 µM and an IC50 [1] of 0.94 µM.
Work on `O=C(/C=C/c1ccc(Cl)c(Cl)c1)NCCCCCN1CCN(C(=O)Nc2ccc(Cl)c(C(F)(F)F)c2)CC1` yielded an IC50 [1] of 51 µM.
With `O=C(/C=C/c1ccc(Cl)c(Cl)c1)NCCCCCN1CCN(C(=O)Nc2ccc(Cl)cc2)CC1` the IC50 [1] was 100 µM.
With `O=C(/C=C/c1ccc(Cl)c(Cl)c1)NCCCCCN1CCCN(C(=O)Nc2ccc(Cl)c(C(F)(F)F)c2)CC1` the IC50 [1] was 1.6 µM.
With `O=C(/C=C/c1ccc(Cl)c(Cl)c1)NCCN1CCCN(C(=O)Nc2ccc(Cl)c(Cl)c2)CC1` the IC50 [1] was 100 µM.
Work on `O=C(/C=C/c1ccc(Cl)c(Cl)c1)NCCCN1CCN(C(=O)Nc2ccc(Cl)c(Cl)c2)CC1` yielded an IC50 [1] of 0.32 µM.
`Cc1ccc(NC(=O)N2CCCN(CCCCCNC(=O)/C=C/c3ccc(Cl)c(Cl)c3)CC2)cc1` gave an IC50 [1] of 100 µM.
Compound `O=C(/C=C/c1ccc(Cl)c(Cl)c1)NCCN1CCN(C(=O)Nc2ccc(Cl)c(Cl)c2)CC1` has an IC50 [1] of 90 µM.
`O=C(/C=C/c1ccc(Cl)c(Cl)c1)NCCCCCN1CCCN(C(=O)Nc2cccc(Cl)c2)CC1` showed an IC50 [1] of 1.3 µM.
Work on `O=C(/C=C/c1ccc(Cl)c(Cl)c1)NCCCCCN1CCN(C(=O)Nc2cccc(Cl)c2)CC1` yielded an IC50 [1] of 51 µM.
With `O=C(/C=C/c1ccc(Cl)c(Cl)c1)NCCCCCN1CCC(C(=O)Nc2ccc(Cl)c(Cl)c2)CC1` the Papp [3] was 9 ×10⁻⁶ cm/s and the IC50 [1] was 0.63 µM.
For `O=C(/C=C/c1ccc(Cl)c(Cl)c1)NCCCCCN1CCCN(C(=O)Nc2ccc(Cl)c(Cl)c2)CC1`, the IC50 [1] was 0.47 µM.
Compound `O=C(/C=C/c1ccc(Cl)c(Cl)c1)NCCCCCN1CCN(C(=O)Nc2ccc(F)c(Cl)c2)CC1` has an IC50 [1] of 0.98 µM.
Work on `O=C(/C=C/c1ccc(Cl)c(Cl)c1)NCCCCCCN1CCCN(C(=O)Nc2ccc(Cl)c(Cl)c2)CC1` yielded an IC50 [1] of 24 µM.
